Each structure is given as a SMILES string. Active and inactive are the calls of the source. No cut-off for these calls is given here.

From ChEMBL document CHEMBL3227920, “Synthesis and activities of antitumor agents” (J Med Chem, 1979) come the findings set out here.

For series [1], the system named is L1210. The experiment in a line: Antitumor activity against mouse L1210 cells allografted in BDF1 mouse assessed as mean survival days at 20 mg/kg, ip qd for 3 days. Particulars: route intraperitoneal. Type of series: functional.
The subject of series [2] is L1210. The series can be described thus: Antitumor activity against mouse L1210 cells allografted in BDF1 mouse assessed as mean survival days at 20 mg/kg, ip qd for 3 days relative to control. Type of series: functional. The settings on record: route intraperitoneal.
Series [3] relates to L1210. The experiment in a line: Antitumor activity against mouse L1210 cells allografted in BDF1 mouse assessed as increase in life span at 20 mg/kg, ip qd for 3 days relative to control. Type of series: functional. The settings on record: route intraperitoneal.
For series [4], the system named is Mus musculus. The series can be described thus: Toxicity in mouse L1210 cells allografted BDF1 mouse assessed as congestive liver at 40 mg/kg, ip qd for 3 days. It is filed as organism-based. The arrangement: dose 40 mg/kg, route intraperitoneal. Particulars: in vivo, 72 h.
Series [5] deals with Mus musculus. The series can be described thus: Toxicity in mouse L1210 cells allografted BDF1 mouse assessed as atrophic spleen at 40 mg/kg, ip qd for 3 days. It is filed as organism-based. The arrangement: dose 40 mg/kg, route intraperitoneal. The settings on record: in vivo, 72 h.
For series [6], the system named is Mus musculus. The series can be described thus: Toxicity in mouse L1210 cells allografted BDF1 mouse assessed as atrophic liver at 20 mg/kg, ip qd for 3 days. Type of series: organism-based. The settings on record: in vivo, 72 h. Set-up: dose 20 mg/kg, route intraperitoneal.
Series [7] has as its system L1210. The experiment in a line: Antitumor activity against mouse L1210 cells allografted in BDF1 mouse assessed as mean survival days at 8 mg/kg, ip qd for 3 days. It is filed as functional. The settings on record: route intraperitoneal.
Series [8] deals with L1210. The experiment in a line: Antitumor activity against mouse L1210 cells allografted in BDF1 mouse assessed as mean survival days at 8 mg/kg, ip qd for 3 days relative to control. The settings on record: route intraperitoneal. It is filed as functional.
Series [9] relates to L1210. The experiment in a line: Antitumor activity against mouse L1210 cells allografted in BDF1 mouse assessed as increase in life span at 8 mg/kg, ip qd for 3 days relative to control. Type of series: functional. The settings on record: route intraperitoneal.
In series [10] the test system is L1210. The experiment in a line: Antitumor activity against mouse L1210 cells allografted in BDF1 mouse assessed as host survival at 8 mg/kg, ip qd for 3 days measured on day 60 relative to control. Type of series: functional, organism-based. Set-up: dose 8 mg/kg.
In series [11] the test system is L1210. The series can be described thus: Antitumor activity against mouse L1210 cells allografted in BDF1 mouse assessed as mean survival days at 10 mg/kg, ip qd for 3 days. It is filed as functional. Particulars: route intraperitoneal.
Series [12] concerns L1210. The series can be described thus: Antitumor activity against mouse L1210 cells allografted in BDF1 mouse assessed as mean survival days at 10 mg/kg, ip qd for 3 days relative to control. Type of series: functional. The settings on record: route intraperitoneal.
Series [13] has as its system L1210. The series can be described thus: Antitumor activity against mouse L1210 cells allografted in BDF1 mouse assessed as increase in life span at 10 mg/kg, ip qd for 3 days relative to control. Type of series: functional. The settings on record: route intraperitoneal.

For the compound `O=NN(CCCl)C(=O)N[C@@H]1O[C@H](CO)[C@@H](O[C@H]2O[C@H](CO)[C@@H](O)[C@H](O)[C@H]2O)[C@H](O)[C@H]1O`, in series [1], the Survival came out at 45.3 days. For the same compound, the T/C in series [2] is recorded as 9. Further, the Activity in [3] is given as 403.3%; in series [4], “Toxic”; in series [5], “Toxic”; in series [6] it was “Toxic”.

Regarding `O=NN(CCCl)C(=O)N[C@@H]1OC[C@@H](O)[C@H](O)[C@H]1O`, in series [7], the Survival is 60 days. In [8], the T/C is listed as 11. For the same compound, the Activity in series [9] was 445.5%. Moreover, the result in series [10] was Active.

For `O=NN(CCCl)C(=O)N[C@@H]1O[C@H](CO)[C@@H](O)[C@H](O)[C@H]1O`, the Survival in series [7] came out at 60 days. Further, the Activity in series [9] is given as 512.2%. Besides, in series [10], the result was Active.

Take `O=NN(CCCl)C(=O)N[C@@H]1O[C@H](CO)[C@@H](O)[C@H](O)[C@@H]1O`: the Survival in series [7] worked out at 18.3 days. Further, the Activity in [9] came out at 103.3%. The result in series [10] was inactive.

As to `O=NN(CCCl)C(=O)N[C@@H]1O[C@H](CO)[C@@H](O[C@@H]2O[C@H](CO)[C@@H](O)[C@H](O)[C@H]2O)[C@H](O)[C@H]1O`, in series [7], the Survival is 42 days. Also, the T/C in series [8] is recorded as 7.2. Moreover, the Activity in series [9] is 483.3%.

With `O=NN(CCCl)C(=O)N[C@@H]1O[C@H](CO)[C@H](O)[C@H](O)[C@H]1O`, in series [7], the Survival worked out at 47 days. The Activity in series [9] is reported as 405.4%.

On to `O=NN(CCCl)C(=O)N[C@@H]1O[C@H](CO)[C@@H](O[C@@H]2O[C@H](CO)[C@H](O)[C@H](O)[C@H]2O)[C@H](O)[C@H]1O`, for which, in series [11], the Survival turned out to be 47 days. Moreover, in [12], the T/C is given as 9.7. For the same compound, the Activity in series [13] turned out to be 384.5%.
